Measurements as given in publication PMC5218480 (PLoS ONE, 2017).

Test system: MV-4-11 cells
Test: Gene expression microarray analysis (Affymetrix PrimeView) and GSEA
Assay type: cell-based, human
Set-up: RFU PODN (11730768_x_at) / Fold change /veh PODN (11730768_x_at) / RFU LINC00158 (11744669_a_at) / Fold change /veh LINC00158 (11744669_a_at) / RFU DUSP10 (11751237_a_at) / Fold change /veh DUSP10 (11751237_a_at) / RFU ID3 (11757404_x_at) / Fold change /veh ID3 (11757404_x_at) / RFU PLEKHG5 (11737974_s_at) / Fold change /veh PLEKHG5 (11737974_s_at) / RFU LRRC4B (11730491_at) / Fold change /veh LRRC4B (11730491_at) / RFU GIMAP4 (11747438_a_at) / Fold change /veh GIMAP4 (11747438_a_at) / RFU KRT8 (11758183_x_at) / Fold change /veh KRT8 (11758183_x_at) / RFU CNN1 (11734310_a_at) / Fold change /veh CNN1 (11734310_a_at) / RFU VPS37D (11726825_at) / Fold change /veh VPS37D (11726825_at) / RFU C10orf10 (11716522_x_at) / Fold change /veh C10orf10 (11716522_x_at) / RFU KIR2DL2 /// KIR2DL4 /// KIR2DL5A /// KIR2DL5B /// KIR2DS1 /// KIR2DS2 /// KIR2DS3 /// KIR2DS4 /// KIR3DL3 /// KIR3DL3 /// KIR3DS1 (11738374_at) / Fold change /veh KIR2DL2 /// KIR2DL4 /// KIR2DL5A /// KIR2DL5B /// KIR2DS1 /// KIR2DS2 /// KIR2DS3 /// KIR2DS4 /// KIR3DL3 /// KIR3DL3 /// KIR3DS1 (11738374_at) / RFU C1QL1 (11718748_at) / Fold change /veh C1QL1 (11718748_at) / RFU TMPRSS4 (11747572_a_at) / Fold change /veh TMPRSS4 (11747572_a_at) / RFU HAMP (11756126_x_at) / Fold change /veh HAMP (11756126_x_at) / RFU RNFT2 (11725882_a_at) / Fold change /veh RNFT2 (11725882_a_at) / RFU NR4A2 (11747474_a_at) / Fold change /veh NR4A2 (11747474_a_at) / RFU ABCC12 (11746883_a_at) / Fold change /veh ABCC12 (11746883_a_at) / RFU TMEM136 (11760407_x_at) / Fold change /veh TMEM136 (11760407_x_at) / RFU CLDN22 /// WWC2 (11732394_at) / Fold change /veh CLDN22 /// WWC2 (11732394_at) / RFU HLA-DPB1 (11760878_x_at) / Fold change /veh HLA-DPB1 (11760878_x_at) / RFU SPINT1 (11716480_a_at) / Fold change /veh SPINT1 (11716480_a_at) / RFU GAP43 (11754022_s_at) / Fold change /veh GAP43 (11754022_s_at) / RFU A4GNT (11735810_at) / Fold change /veh A4GNT (11735810_at) / RFU PRB3 (11715151_x_at) / Fold change /veh PRB3 (11715151_x_at) / RFU TUBB4B (11761932_at) / Fold change /veh TUBB4B (11761932_at) / RFU CAPN14 (11732068_a_at) / Fold change /veh CAPN14 (11732068_a_at) / RFU TMCC2 (11721928_a_at) / Fold change /veh TMCC2 (11721928_a_at) / RFU IRGQ (11745062_a_at) / Fold change /veh IRGQ (11745062_a_at) / RFU FAM174B (11720279_a_at) / Fold change /veh FAM174B (11720279_a_at) / RFU TMPRSS4 (11748680_a_at) / Fold change /veh TMPRSS4 (11748680_a_at) / RFU FAM212B (11763350_a_at) / Fold change /veh FAM212B (11763350_a_at) / RFU PLEKHG5 (11743358_a_at) / Fold change /veh PLEKHG5 (11743358_a_at) / RFU ZSCAN30 (11745921_a_at) / Fold change /veh ZSCAN30 (11745921_a_at) / RFU CMKLR1 (11741424_a_at) / Fold change /veh CMKLR1 (11741424_a_at) / RFU LOC101060620 /// MAPK8IP1 (11723275_at) / Fold change /veh LOC101060620 /// MAPK8IP1 (11723275_at) / RFU SPTSSB (11747773_x_at) / Fold change /veh SPTSSB (11747773_x_at) / RFU PRSS12 (11739890_at) / Fold change /veh PRSS12 (11739890_at) / RFU BIN1 (11741810_x_at) / Fold change /veh BIN1 (11741810_x_at) / RFU WNT11 (11732464_a_at) / Fold change /veh WNT11 (11732464_a_at) / RFU C10orf10 (11716521_a_at) / Fold change /veh C10orf10 (11716521_a_at) / RFU C5orf56 (11738089_at) / Fold change /veh C5orf56 (11738089_at) / RFU CYB561 (11721691_x_at) / Fold change /veh CYB561 (11721691_x_at) / RFU ANKRD19P (11752326_a_at) / Fold change /veh ANKRD19P (11752326_a_at) / RFU OR2T12 /// OR2T33 /// OR2T8 (11738714_s_at) / Fold change /veh OR2T12 /// OR2T33 /// OR2T8 (11738714_s_at) / RFU VCAN (11748164_a_at) / Fold change /veh VCAN (11748164_a_at) / RFU JSRP1 (11732532_at) / Fold change /veh JSRP1 (11732532_at) / RFU KRTAP10-11 (11738290_x_at) / Fold change /veh KRTAP10-11 (11738290_x_at) / RFU MYO3A (11730013_a_at) / Fold change /veh MYO3A (11730013_a_at) / RFU EBF3 (11725865_a_at) / Fold change /veh EBF3 (11725865_a_at) / RFU CAMK2N1 (11719241_x_at) / Fold change /veh CAMK2N1 (11719241_x_at) / RFU C5orf56 (11738088_a_at) / Fold change /veh C5orf56 (11738088_a_at) / RFU OLFML3 (11715873_a_at) / Fold change /veh OLFML3 (11715873_a_at) / RFU LOC100653217 /// NTM (11731650_a_at) / Fold change /veh LOC100653217 /// NTM (11731650_a_at) / RFU MAPK11 (11762145_a_at) / Fold change /veh MAPK11 (11762145_a_at) / RFU FIZ1 (11724087_x_at) / Fold change /veh FIZ1 (11724087_x_at) / RFU OASL (11726364_x_at) / Fold change /veh OASL (11726364_x_at) / RFU SOX15 (11748057_x_at) / Fold change /veh SOX15 (11748057_x_at) / RFU CD79A (11719716_a_at) / Fold change /veh CD79A (11719716_a_at) / RFU HIST1H1D (11736915_at) / Fold change /veh HIST1H1D (11736915_at) / RFU CASKIN2 (11723855_a_at) / Fold change /veh CASKIN2 (11723855_a_at) / RFU LOC730098 (11760151_x_at) / Fold change /veh LOC730098 (11760151_x_at) / RFU OR4N2 (11742367_at) / Fold change /veh OR4N2 (11742367_at) / RFU PRRT2 (11749266_a_at) / Fold change /veh PRRT2 (11749266_a_at) / RFU SNX32 (11753110_a_at) / Fold change /veh SNX32 (11753110_a_at) / RFU CDHR5 (11726645_a_at) / Fold change /veh CDHR5 (11726645_a_at) / RFU RCAN1 (11760418_a_at) / Fold change /veh RCAN1 (11760418_a_at) / RFU FAM167A (11723789_a_at) / Fold change /veh FAM167A (11723789_a_at) / RFU FAM26E (11764081_at) / Fold change /veh FAM26E (11764081_at) / RFU ISYNA1 (11749810_s_at) / Fold change /veh ISYNA1 (11749810_s_at) / RFU ACY1 (11761880_at) / Fold change /veh ACY1 (11761880_at) / RFU 11764098_at / Fold change /veh 11764098_at / RFU SAMD14 (11745864_x_at) / Fold change /veh SAMD14 (11745864_x_at) / RFU NPB (11741838_a_at) / Fold change /veh NPB (11741838_a_at) / RFU TMPRSS6 (11731388_a_at) / Fold change /veh TMPRSS6 (11731388_a_at) / RFU KRTAP10-2 (11738614_at) / Fold change /veh KRTAP10-2 (11738614_at) / RFU ARHGAP8 /// PRR5-ARHGAP8 (11727945_x_at) / Fold change /veh ARHGAP8 /// PRR5-ARHGAP8 (11727945_x_at) / RFU KRTAP5-7 /// NADSYN1 (11734609_at) / Fold change /veh KRTAP5-7 /// NADSYN1 (11734609_at) / RFU RASL12 (11751679_a_at) / Fold change /veh RASL12 (11751679_a_at) / RFU CDKN2B (11736163_a_at) / Fold change /veh CDKN2B (11736163_a_at) / RFU PRF1 (11729649_at) / Fold change /veh PRF1 (11729649_at) / RFU, ZNF638 /// ZNF638-IT1 / Fold change vs veh, ZNF638 /// ZNF638-IT1 / RFU, PANK3 / Fold change vs veh, PANK3 / RFU, SH3YL1 / Fold change vs veh, SH3YL1 / RFU, ZEB2 / Fold change vs veh, ZEB2 / RFU, NRIP1 / Fold change vs veh, NRIP1 / RFU, PTTG1IP / Fold change vs veh, PTTG1IP / RFU, CAPN2 / Fold change vs veh, CAPN2 / RFU, MED14 / Fold change vs veh, MED14 / RFU, SNORA58 / Fold change vs veh, SNORA58 / RFU, C1orf63 / Fold change vs veh, C1orf63 / RFU, LRRFIP1 / Fold change vs veh, LRRFIP1 / RFU, NDUFAF7 / Fold change vs veh, NDUFAF7 / RFU, SLC12A2 / Fold change vs veh, SLC12A2 / RFU, IBTK / Fold change vs veh, IBTK / RFU, ESF1 / Fold change vs veh, ESF1 / Fold change vs veh, TMEM50B / RFU, TAOK1 / Fold change vs veh, TAOK1 / RFU, ACBD3 / Fold change vs veh, ACBD3 / RFU, TMA16 / Fold change vs veh, TMA16 / RFU, RWDD3 / Fold change vs veh, RWDD3 / RFU, BCAT1 / Fold change vs veh, BCAT1 / RFU, EDEM3 / Fold change vs veh, EDEM3 / RFU, TMEM33 / Fold change vs veh, TMEM33 / RFU, WDR75 / Fold change vs veh, WDR75 / RFU, AHCTF1 / Fold change vs veh, AHCTF1 / RFU, TFRC / Fold change vs veh, TFRC / RFU, ZDHHC17 / Fold change vs veh, ZDHHC17 / RFU, NOM1 / Fold change vs veh, NOM1 / RFU, ARL8B / Fold change vs veh, ARL8B / RFU, ZBTB11 / Fold change vs veh, ZBTB11 / RFU, TAMM41 / Fold change vs veh, TAMM41 / RFU, KIAA1704 /// LOC100996395 / Fold change vs veh, KIAA1704 /// LOC100996395 / RFU, ING1 / Fold change vs veh, ING1 / RFU, TRMT61B / Fold change vs veh, TRMT61B / RFU, FUBP3 / Fold change vs veh, FUBP3 / RFU, TP53 / Fold change vs veh, TP53 / RFU, TNKS2 / Fold change vs veh, TNKS2 / RFU, ZFP14 / Fold change vs veh, ZFP14 / RFU, ACTR2 / Fold change vs veh, ACTR2 / RFU, PPP3R1 / Fold change vs veh, PPP3R1 / RFU, PIK3R1 / Fold change vs veh, PIK3R1 / RFU, HNRNPA1 / Fold change vs veh, HNRNPA1 / RFU, RNF170 / Fold change vs veh, RNF170 / RFU, ZNF28 / Fold change vs veh, ZNF28 / RFU, RNGTT / Fold change vs veh, RNGTT / RFU, OGT / Fold change vs veh, OGT / RFU, BRD1 / Fold change vs veh, BRD1 / RFU, MARS / Fold change vs veh, MARS / RFU, ZNF655 / Fold change vs veh, ZNF655 / RFU, FAHD1 / Fold change vs veh, FAHD1 / RFU, BDP1 / Fold change vs veh, BDP1 / RFU, LRRCC1 / Fold change vs veh, LRRCC1 / RFU, ARID1A / Fold change vs veh, ARID1A / RFU, ZNF146 / Fold change vs veh, ZNF146 / RFU, ZNF330 / Fold change vs veh, ZNF330 / RFU, GPN3 / Fold change vs veh, GPN3 / RFU, C9orf123 / Fold change vs veh, C9orf123 / RFU, N4BP2L2 / Fold change vs veh, N4BP2L2 / RFU, ARFIP1 / Fold change vs veh, ARFIP1 / RFU, FAM179B / Fold change vs veh, FAM179B / RFU, BCL10 / Fold change vs veh, BCL10 / RFU, UHRF1BP1L / Fold change vs veh, UHRF1BP1L / RFU, BET1 / Fold change vs veh, BET1 / RFU, CNOT2 / Fold change vs veh, CNOT2 / RFU, ZNF268 / Fold change vs veh, ZNF268 / Fold change vs veh, ZNF507 / RFU, DGCR2 / Fold change vs veh, DGCR2 / RFU, WDSUB1 / Fold change vs veh, WDSUB1 / Fold change vs veh, HSP90B1 /// MIR3652 / RFU, ADSS / Fold change vs veh, ADSS / RFU, GK / Fold change vs veh, GK / RFU, ZNF148 / Fold change vs veh, ZNF148 / RFU, TAF9 / Fold change vs veh, TAF9 / RFU, SLC1A5 / Fold change vs veh, SLC1A5 / RFU, SLMO2 / Fold change vs veh, SLMO2 / RFU, ABCC4 / Fold change vs veh, ABCC4 / RFU, LOC101060439 /// RAP1B / Fold change vs veh, LOC101060439 /// RAP1B / RFU, RFX7 / Fold change vs veh, RFX7 / RFU, GTPBP10 / Fold change vs veh, GTPBP10 / RFU, CNEP1R1 / Fold change vs veh, CNEP1R1 / RFU, BIVM-ERCC5 /// ERCC5 / Fold change vs veh, BIVM-ERCC5 /// ERCC5 / RFU, ILF3 / Fold change vs veh, ILF3 / RFU 11762660_at / Fold change /veh 11762660_at / RFU VCAN (11757783_s_at) / Fold change /veh VCAN (11757783_s_at) / RFU DDX43 (11728927_at) / Fold change /veh DDX43 (11728927_at) / RFU KRT8 (11758188_x_at) / Fold change /veh KRT8 (11758188_x_at) / RFU NKD1 (11759106_at) / Fold change /veh NKD1 (11759106_at) / RFU SRD5A1 (11742802_a_at) / Fold change /veh SRD5A1 (11742802_a_at) / RFU TPSAB1 /// TPSB2 (11721975_s_at) / Fold change /veh TPSAB1 /// TPSB2 (11721975_s_at) / RFU GSTM3 (11746129_a_at) / Fold change /veh GSTM3 (11746129_a_at) / RFU IL23R (11737362_x_at) / Fold change /veh IL23R (11737362_x_at) / RFU TMEM51 (11727254_a_at) / Fold change /veh TMEM51 (11727254_a_at) / RFU PIWIL2 (11732686_x_at) / Fold change /veh PIWIL2 (11732686_x_at) / RFU ORM1 (11744905_x_at) / Fold change /veh ORM1 (11744905_x_at) / RFU CCDC152 (11743942_at) / Fold change /veh CCDC152 (11743942_at) / RFU ECM1 (11717891_a_at) / Fold change /veh ECM1 (11717891_a_at) / RFU IL23R (11748794_a_at) / Fold change /veh IL23R (11748794_a_at) / RFU TNFAIP8L3 (11732012_x_at) / Fold change /veh TNFAIP8L3 (11732012_x_at) / RFU MBOAT4 (11741988_at) / Fold change /veh MBOAT4 (11741988_at) / RFU 11764193_at / Fold change /veh 11764193_at / RFU TMEM53 (11763286_at) / Fold change /veh TMEM53 (11763286_at) / RFU MAGEB2 (11727129_at) / Fold change /veh MAGEB2 (11727129_at) / RFU TMEM200A (11744735_a_at) / Fold change /veh TMEM200A (11744735_a_at) / RFU CCDC152 (11751479_a_at) / Fold change /veh CCDC152 (11751479_a_at) / RFU FAM211A (11726209_a_at) / Fold change /veh FAM211A (11726209_a_at) / RFU RGS16 (11746705_a_at) / Fold change /veh RGS16 (11746705_a_at) / RFU VCAN (11755009_s_at) / Fold change /veh VCAN (11755009_s_at) / RFU RHOB (11743442_s_at) / Fold change /veh RHOB (11743442_s_at) / RFU RGS16 (11720943_a_at) / Fold change /veh RGS16 (11720943_a_at) / RFU RGS16 (11720944_at) / Fold change /veh RGS16 (11720944_at) / RFU, VPS4B / Fold change vs veh, VPS4B / RFU, CREB1 / Fold change vs veh, CREB1 / RFU, DNAJC13 / Fold change vs veh, DNAJC13 / RFU, GNAQ / Fold change vs veh, GNAQ / RFU, CDK5R1 / Fold change vs veh, CDK5R1 / RFU, ZRANB3 / Fold change vs veh, ZRANB3 / RFU, CUL4A / Fold change vs veh, CUL4A / RFU, CCNY / Fold change vs veh, CCNY / RFU, UFL1 / Fold change vs veh, UFL1 / RFU, COG3 / Fold change vs veh, COG3 / RFU, DIAPH2 / Fold change vs veh, DIAPH2 / RFU, SKA2 / Fold change vs veh, SKA2 / RFU, AFF3 / Fold change vs veh, AFF3 / RFU, LMF1 / Fold change vs veh, LMF1 / RFU, IPO11 / Fold change vs veh, IPO11 / RFU, DFFB / Fold change vs veh, DFFB / RFU, FOXP1 / Fold change vs veh, FOXP1 / RFU, CARD8 / Fold change vs veh, CARD8 / RFU, STRN3 / Fold change vs veh, STRN3 / RFU, ADK / Fold change vs veh, ADK / RFU, RASSF2 / Fold change vs veh, RASSF2 / RFU, WIPF1 / Fold change vs veh, WIPF1 / RFU, LARP1B / Fold change vs veh, LARP1B / RFU, RASA1 / Fold change vs veh, RASA1 / RFU, RB1 / Fold change vs veh, RB1 / RFU, PPFIA1 / Fold change vs veh, PPFIA1 / RFU, MAT2A / Fold change vs veh, MAT2A / RFU, CCT5 / Fold change vs veh, CCT5 / RFU, WDR92 / Fold change vs veh, WDR92 / RFU, CUX1 / Fold change vs veh, CUX1 / RFU, TTC7A / Fold change vs veh, TTC7A / RFU, TMEM135 / Fold change vs veh, TMEM135 / RFU, DEPTOR / Fold change vs veh, DEPTOR / RFU, CPM / Fold change vs veh, CPM / RFU, DNAJB6 / Fold change vs veh, DNAJB6 / RFU, CACNA2D3 / Fold change vs veh, CACNA2D3 / RFU, DTX4 / Fold change vs veh, DTX4 / RFU, TFCP2 / Fold change vs veh, TFCP2 / RFU, GMCL1 /// GMCL1P1 / Fold change vs veh, GMCL1 /// GMCL1P1 / RFU, AEBP2 / Fold change vs veh, AEBP2 / RFU, SNHG1 /// SNORD22 /// SNORD25 /// SNORD26 /// SNORD27 /// SNORD28 /// SNORD29 /// SNORD31 / Fold change vs veh, SNHG1 /// SNORD22 /// SNORD25 /// SNORD26 /// SNORD27 /// SNORD28 /// SNORD29 /// SNORD31 / Fold change (Aza/veh), C12orf56 (ProbeSet 11735607_a_at) / Fold change (ACY-1035/veh), C12orf56 (ProbeSet 11735607_a_at) / Fold change (Aza/veh), FGFR1OP (ProbeSet 11751329_s_at) / Fold change (ACY-1035/veh), FGFR1OP (ProbeSet 11751329_s_at) / Fold change (Aza/veh), VPS36 (ProbeSet 11739960_a_at) / Fold change (ACY-1035/veh), VPS36 (ProbeSet 11739960_a_at) / RFU SYPL1 (11715823_x_at) / Fold change /veh SYPL1 (11715823_x_at) / RFU IGFBP7 (11715501_s_at) / Fold change /veh IGFBP7 (11715501_s_at) / RFU REEP3 (11722064_at) / Fold change /veh REEP3 (11722064_at) / RFU IGLL1 (11728026_x_at) / Fold change /veh IGLL1 (11728026_x_at): dose or concentration left out as unconfirmed
Settings: ProbeSet 11718701_a_at; LIST B

`Nc1ccc(-c2cccs2)cc1NC(=O)c1ccc2c(c1)cc(C1CC1)n2CCN1CCOCC1` [ACY-1035] was tested, and the “RFU, ARFIP1” value was 56.28 RFU.
